Laboratory results taken from paper PMC9034499, “RORγt agonist enhances anti-PD-1 therapy by promoting monocyte-derived dendritic cells through CXCL10 in cancers” (Journal of Experimental & Clinical Cancer Research : CR, 2022).

Key:
B cells = assay: B cell activation markers by qPCR; format: cell-based; conditions: compared with the vehicle
Protocol: The intracellular cytokines by TILs or in vitro differentiated T helper cells were quantified after restimulation with PMA plus ionomycin in the presence of GolgiStop for 6 h. The total RNA was isolated using the improved TRizol-based (Sigma, Darmstadt, Germany) method for qPCR analysis, and the mRNA expression was analyzed using a StepOnePlus (Life Technologies, Carlsbad, USA) real-time PCR instrument using housekeeping gene β-actin and Gapdh internal standards. qPCR was performed using A Power SYBR Green PCR Master Mix (Accurate Biology, Hunan, China) and two-cycle amplification for 40 cycles followed by the melting curve. The sequence of primers is listed in the Additional file 6: Table S1. In addition, the cytokines were quantified in cell-free culture supernatants using enzymelinked immunosorbent assay (ELISA) kit (the optical density (OD) value was measured at 450 nm, using 570 nm or 630 nm as the reference wavelengths, Multisciences, Hangzhou, China). The kit was used according to the manufacturer’s instructions.
To confirm the in vitro specificity of 8-074, splenocytes from C57BL/6 wild-type mice were activated by plate-bound anti-CD3 and anti-CD28 antibodies and polarized with anti-IL-4 and IL-12 to obtain Th1 cells. IFN-γ, a signature cytokine of Th1 cells, was not affected by LYC-55716 or 8-074 compared with vehicle alone (Fig. 2j, Fig. S2g).

hRORγt LBD = biological target: T1, hRORγt LBD (Homo sapiens, UniProt P51449); assay: RORγt GAL4 cell-based reporter gene assay; conditions: HEK293T host cells; read-out: EC50, RORγt agonist activity in Gal4 reporter gene assay
T1 construct: expressed in transfected cells; host or cells: HEK293T
T1 sequence (P51449 269-508 limits assumed): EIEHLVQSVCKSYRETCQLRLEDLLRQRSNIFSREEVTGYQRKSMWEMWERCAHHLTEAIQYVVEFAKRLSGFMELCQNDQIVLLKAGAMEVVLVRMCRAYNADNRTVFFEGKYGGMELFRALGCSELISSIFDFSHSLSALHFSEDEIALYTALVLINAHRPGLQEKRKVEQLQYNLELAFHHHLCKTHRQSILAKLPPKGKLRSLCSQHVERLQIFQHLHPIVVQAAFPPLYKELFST
Protocol: The hRORγt LBD coding sequence was inserted into a pBIND expression vector (Promega, E1581) to express the ROR-GAL4 binding domain chimeric receptors. This expression vector and a reporter vector (pGL4.35, which carries a stably integrated GAL4 promoter-driven luciferase reporter gene [luc2P/9XGAL4 UAS/Hygro]) were co-transfected into the HEK293T host cells. The assay was performed according to a previous study. EC50 of the sigmoidal fits were analyzed using Prism 5 and a four-parameter logistic fit equation, Y = bottom + (top–bottom) / (1 + 10(logEC50 − X) × hill slope). "X" is the log of compound concentration, and "Y" is the response, which increases as X increases. Y starts at "bottom" and goes to "top" with a sigmoid shape.

LLC tumors = assay: LLC syngeneic tumor model; format: in vivo, C57BL/6 mice
Protocol: All experiments were approved by the IACUC and performed with strict adherence to a series of documents and standards of procedures (SOPs) relative to animal ethics and welfare. The mice were housed in cages with controlled temperature (25 ± 2 °C) and humidity (65 ± 5%) under a 12 h light/dark cycle. After a one-week adaptation period, six to eight-week-old female mice were injected s.c. with LLC (5 × 10^5), B16F10 (2 × 10^5), or MC38 (2 × 10^6) cells into the lower right flank. Approximately seven days after the subcutaneous injection of tumor cells, the mice were randomly divided into four groups. RORγt agonist 8-074, LYC-55716 (BioChemPartner, Shanghai, China) and anti-PD-1 (BioXCell, New Hampshire, USA) treatment commenced when the average tumor size reached 50 mm^3 for LLC and B16F10 and 150 mm^3 for MC38. The 5 × 10^5 LLC cells were transplanted subcutaneously into the right flank of the C57BL/6 mice seven days after being transplanted, and the mice were randomly divided into four groups. Anti-PD-1 was administrated one day after the RORγt agonist was treated (Clone: PMP1-14; 200 μg via intraperitoneal injection on day 1, 4, 7, 10, 13 after treatment with 8-074). For the CD8^+ T cell depletion, mice were injected intraperitoneally (i.p.) with 400 μg of anti-CD8α (YTS 169.4; BioXCell, New Hampshire, USA) one day before and dosed per week after the anti-PD-1 treatment. Mice with established tumors were treated using intraperitoneal injection of 8-074 (indicated dose), LYC-55716 (50 mg/kg) or DMSO (SIGMA, New Jersey, USA) every day. […] The tumor volume based on the caliper measurements was calculated using the modified ellipsoidal equation, where the tumor volume = 1/2 (length × width ^2) and the length was the longer dimension. […] TGI was calculated using the equation: [(Ct – C0) – (Tt – T0)] / (Ct – C0) × 100, where Ct = the mean tumor volume of the control group at the time (t); C0 = the mean tumor volume of the control group at t0; Tt = mean tumor volume of the treatment group at t; and T0 = mean tumor volume of the treatment group at t0.

EC50 (hRORγt LBD): 119 nM
SMILES: CCS(=O)(=O)c1ccc(CC(=O)Nc2ccc(-c3ccc(CC(C)C)c(C#N)c3)c(C(F)(F)F)c2)cc1 [8-074]
gene expression of activated B cell markers Cd19 and Cd86 (B cells): no significant change
TGI (LLC tumors; LLC combination study Fig. 3e, anti-PD-1 10 mg/kg every three days i.p., 8-074 i.p. every day): 59.3%
body weight of mice (LLC tumors; LLC model, dose escalation): slight body weight loss
Tumor growth inhibition (TGI) (LLC tumors; LLC, 50 mg/kg i.p. QD over two weeks, Fig. 3a): 55.6%
